Experiment [1] addresses T1, Wee1 kinase domain (Homo sapiens, UniProt P30291).
T1 construct: Wee1 kinase domain was purchased from Carna (catalog #05-177); purchased Carna 05-177
In words: Wee1 Kinase Biochemical Assay (ADP-Glo). The following applies: Wee1 kinase domain, 15 uM ATP, ADP-Glo. A digest of the protocol:
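Compounds tested against 1 nM Wee1 kinase domain in Tris buffer containing 20 mM MgCl2, BSA and 2 mM DTT, with 15 uM ATP and poly(Lys,Tyr) substrate for 4 h at 25 °C. Luminescent ADP detection gave percent inhibition, normalized to DMSO and saturating inhibitor.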

The subject of experiment [2] is phosphorylation of Cdc2 Y15 (Wee1 substrate) in A427 cells. In words: Phosphorylated Cdc2 MSD Electrochemiluminescence Assay. The following applies: Homo sapiens, A-427, pCDC2 MSD. In kind it is cell-based. A digest of the protocol:
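Read-out: percent residual phospho-Cdc2 Y15 relative to DMSO and positive-control Wee1 inhibitor, measured by MSD electrochemiluminescence capture/detection antibody assay in cell lysates. A427 cells received duplicate 3-fold compound dilution series 20 h post-seeding, with 6 h total incubation at 37 °C.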

T1 sequence (P30291 299-569 limits assumed): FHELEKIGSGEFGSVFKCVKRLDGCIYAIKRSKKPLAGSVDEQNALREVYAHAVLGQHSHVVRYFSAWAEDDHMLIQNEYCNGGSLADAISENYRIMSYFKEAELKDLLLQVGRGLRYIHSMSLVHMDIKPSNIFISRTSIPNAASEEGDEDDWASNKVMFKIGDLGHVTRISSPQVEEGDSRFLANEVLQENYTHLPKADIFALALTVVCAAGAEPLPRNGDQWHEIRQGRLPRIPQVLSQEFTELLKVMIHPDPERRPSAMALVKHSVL

Take `CN1CC[C@H](n2cc(Nc3ncc4c(n3)N(c3cccc(N=S(C)(C)=O)n3)[C@@H]3CC(C)(C)OC[C@]43C)cn2)C1` (single isomer, unassigned) [Example 198]: the IC50 in experiment [1] was < 10 nM; in experiment [2], 100 to 1000 nM.

For `CN1CCC[C@H](n2cc(Nc3ncc4c(n3)N(c3cccc(N=S(C)(C)=O)n3)[C@@H]3CC(C)(C)OC[C@]43C)cn2)C1` (single isomer, unassigned) [Example 199], the half-inhibitory concentration (IC50) in experiment [1] is < 10 nM; in experiment [2] it was 100 to 1000 nM.

With `CN1CCC[C@@H](n2cc(Nc3ncc4c(n3)N(c3cccc(N=S(C)(C)=O)n3)[C@@H]3CC(C)(C)OC[C@]43C)cn2)C1` (single isomer, unassigned) [Example 201], the figures for the IC50 in experiment [1] and in experiment [2] were < 10 nM and 100 to 1000 nM, respectively.

For `CN1CCCC(n2cc(Nc3ncc4c(n3)N(c3cccc(N=S(C)(C)=O)n3)C3CC(C)(C)OCC43C)cn2)C1` (single isomer, unassigned) [Example 202], the IC50 is < 10 nM in experiment [1] and 100 to 1000 nM in experiment [2].

As for `CN1CCC(c2cc(Nc3ncc4c(n3)N(c3cccc(N=S(C)(C)=O)n3)[C@@H]3CC(C)(C)OC[C@]43C)on2)CC1` (single isomer, unassigned) [Example 204], the IC50 in experiment [1] is < 10 nM; in experiment [2], 100 to 1000 nM.

For `CN1CCC(n2cnc(Nc3ncc4c(n3)N(c3cccc(N=S(C)(C)=O)n3)[C@@H]3CC(C)(C)OC[C@]43C)c2)CC1` (single isomer, unassigned) [Example 205], the results for the IC50 in experiment [1] and in experiment [2] were < 10 nM and < 100 nM, respectively.

For `CN1CC(n2cc(Nc3ncc4c(n3)N(c3cccc(N=S(C)(C)=O)n3)[C@@H]3CC(C)(C)OC[C@]43C)cn2)C1` (single isomer, unassigned) [Example 207], the IC50 is < 10 nM in experiment [1] and 100 to 1000 nM in experiment [2].

As for `CN1CCC[C@@H]1c1ccc(Nc2ncc3c(n2)N(c2cccc(N=S(C)(C)=O)n2)[C@@H]2CC(C)(C)OC[C@]32C)cn1` (single isomer, unassigned) [Example 210], the IC50 is < 10 nM in experiment [1] and 100 to 1000 nM in experiment [2].

With `CC1(C)C[C@H]2N(c3cccc(N=S(C)(C)=O)n3)c3nc(Nc4ccc([C@H]5CCCN5)nc4)ncc3[C@@]2(C)CO1` (single isomer, unassigned) [Example 212], the IC50 in experiment [1] was < 10 nM; in experiment [2] it was 100 to 1000 nM.

On to `CC1(C)C[C@H]2N(c3cccc(N=S(C)(C)=O)n3)c3nc(Nc4ccc([C@@H]5CCCN5)nc4)ncc3[C@@]2(C)CO1` (single isomer, unassigned) [Example 214], for which the results for the IC50 in experiment [1] and in experiment [2] were < 10 nM and 100 to 1000 nM, respectively.

On to `CN1CCC[C@H]1c1ccc(Nc2ncc3c(n2)N(c2cccc(N=S(C)(C)=O)n2)[C@@H]2CC(C)(C)OC[C@]32C)cn1` (single isomer, unassigned) [Example 216], for which the half-inhibitory concentration (IC50) in experiment [1] is < 10 nM; in experiment [2], 100 to 1000 nM.

As for `CN1C[C@@H]2CN(c3ccc(Nc4ncc5c(n4)N(c4cccc(N=S(C)(C)=O)n4)[C@@H]4CC(C)(C)OC[C@]54C)cc3)C[C@@H]2C1` (single isomer, unassigned) [Example 217], the IC50 was < 10 nM in experiment [1] and 100 to 1000 nM in experiment [2].

Turning to `CN1CCC(c2ncc(Nc3ncc4c(n3)N(c3cccc(N=S(C)(C)=O)n3)[C@@H]3CC(C)(C)OC[C@]43C)s2)CC1` (single isomer, unassigned) [Example 221], the IC50 was < 10 nM in experiment [1] and < 100 nM in experiment [2].

For `CC1(C)C[C@H]2N(c3cccc(N=S(C)(C)=O)n3)c3nc(Nc4cnn(C5COC5)c4)ncc3[C@@]2(C)CO1` (single isomer, unassigned) [Example 223], the IC50 in experiment [1] was < 10 nM; in experiment [2] it was 100 to 1000 nM.

Consider `CN1CC[C@H](n2ccc(Nc3ncc4c(n3)N(c3cccc(N=S(C)(C)=O)n3)[C@@H]3CC(C)(C)OC[C@]43C)n2)C1` (single isomer, unassigned) [Example 225], for which the IC50 in experiment [1] was < 10 nM; in experiment [2], 1000 to 10000 nM.

On to `CN1CC[C@@H](n2ccc(Nc3ncc4c(n3)N(c3cccc(N=S(C)(C)=O)n3)[C@@H]3CC(C)(C)OC[C@]43C)n2)C1` (single isomer, unassigned) [Example 227], for which the IC50 in experiment [1] was < 10 nM; in experiment [2] it was 1000 to 10000 nM.

`CC1(C)C[C@H]2N(c3cccc(N=S(C)(C)=O)n3)c3nc(Nc4cn(C5COC5)cn4)ncc3[C@@]2(C)CO1` (single isomer, unassigned) [Example 232]: the values for the 50% inhibitory concentration (IC50) in experiment [1] and in experiment [2] were < 10 nM and 1000 to 10000 nM, respectively.

Take `CC1(C)C[C@H]2N(c3cccc(N=S(C)(C)=O)n3)c3nc(Nc4ccn(C5CCOCC5)c(=O)c4)ncc3[C@@]2(C)CO1` (single isomer, unassigned) [Example 233]: the results for the IC50 in experiment [1] and in experiment [2] were < 10 nM and 100 to 1000 nM, respectively.

For the compound `C[C@H]1COC(=O)N1c1cccc(N2c3nc(Nc4ccc(N5CCN(C)CC5)cc4)ncc3[C@]3(C)COC(C)(C)C[C@H]23)n1` (single isomer, unassigned) [Example 235], the IC50 was < 10 nM in experiment [1] and 100 to 1000 nM in experiment [2].

As for `Cc1cc(Nc2ncc3c(n2)N(c2cccc(N4C(=O)OC[C@@H]4C)n2)[C@@H]2CC(C)(C)OC[C@]32C)ccc1N1CCN(C)CC1` (single isomer, unassigned) [Example 237], the IC50 in experiment [1] is < 10 nM; in experiment [2] it was < 100 nM.

Regarding `Cc1cc(Nc2ncc3c(n2)N(c2cccc(N4C(=O)OC[C@@H]4C)n2)[C@@H]2CC(C)(C)OC[C@]32C)ccc1C1CCN(C)CC1` (single isomer, unassigned) [Example 238], the IC50 is < 10 nM in experiment [1] and 100 to 1000 nM in experiment [2].

Regarding `C[C@H]1COC(=O)N1c1cccc(N2c3nc(Nc4ccc(N5CCN(C)CC5)nc4)ncc3[C@@]3(C)COC(C)(C)C[C@@H]23)n1` (single isomer, unassigned) [Example 241], the IC50 is < 10 nM in experiment [1] and 100 to 1000 nM in experiment [2].

Turning to `C[C@H]1COC(=O)N1c1cccc(N2c3nc(Nc4cnn(C5CCN(C)CC5)c4)ncc3[C@@]3(C)COC(C)(C)C[C@@H]23)n1` (single isomer, unassigned) [Example 243], the concentration for half-maximal inhibition (IC50) is < 10 nM in experiment [1] and < 100 nM in experiment [2].

Regarding `C[C@H]1COC(=O)N1c1cccc(N2c3nc(Nc4ccc(N5C[C@@H]6C[C@H]5CN6C)cc4)ncc3[C@@]3(C)COC(C)(C)C[C@@H]23)n1` (single isomer, unassigned) [Example 245], the values for the half-inhibitory concentration (IC50) in experiment [1] and in experiment [2] were < 10 nM and 100 to 1000 nM, respectively.

As for `C[C@H]1COC(=O)N1c1cccc(N2c3nc(Nc4ccc(N5C[C@H]6C[C@@H]5CN6C)cc4)ncc3[C@]3(C)COC(C)(C)C[C@H]23)n1` (single isomer, unassigned) [Example 246], the IC50 was in the range of 10 to 100 nM in experiment [1] and 1000 to 10000 nM in experiment [2].

Turning to `C[C@H]1COC(=O)N1c1cccc(N2c3nc(Nc4ccc(N5C[C@H]6C[C@@H]5CN6C)cc4)ncc3[C@@]3(C)COC(C)(C)C[C@@H]23)n1` (single isomer, unassigned) [Example 247], the values for the half-inhibitory concentration (IC50) in experiment [1] and in experiment [2] were < 10 nM and 100 to 1000 nM, respectively.

With `C[C@H]1COC(=O)N1c1cccc(N2c3nc(Nc4ccc(C5CCN(C)CC5)cc4)ncc3[C@@]3(C)COC(C)(C)C[C@@H]23)n1` (single isomer, unassigned) [Example 251], the IC50 in experiment [1] is < 10 nM; in experiment [2] it was 100 to 1000 nM.
